Laboratory results published in patent US6790833B2, “Antifungal and antibacterial agents” (priority 2001, dated 2004).
Where a SMILES comes first, the peptide text is derived from it.

Legend:
C. albicans [1] = experiment: Fluorescence light and confocal microscopy, internalization of FITC-labeled peptide; format: cell-based, Candida albicans
Protocol: (§1) The internalization of MUC7 20-mer into fungi was visualized in C. albicans and C. neoformans. Untreated cells (10^7) or cells preincubated with 20 mM sodium azide, 300 μM CCCP, 50 mM Ca^++ or 50 mM Mg^++ were then treated with 50 μM FITC-MUC7 20-mer for 45-90 minutes in 100 μl of Na phosphate buffer (10 mM, pH 7.4) at 37° C. Untreated cells were also incubated with 50 μM FITC-MUC7 20-mer at 4° C. The cells were then extensively washed with phosphate buffer, concentrated and resuspended in the same buffer. The cell suspension was then quickly mounted on slides with sealed cover-slips. Fluorescence light micrographs were made on a Nikon Optiphot microscope, with a fluorescent light source.
(§2) The intracellular localization of FITC-MUC7-20mer was investigated in a double-labeling experiment using MitoTracker Red mitochondrial probe. C. albicans and C. neoformans were incubated with 500 nM MitoTracker Red in 10 mM Na phosphate buffer, pH 7.4 for 15 minutes at room temperature, washed three times with the same buffer, and subsequently incubated with 50 μM FITC-MUC7 20-mer. After 20 min. incubation at 37° C., the suspension was washed with phosphate buffer extensively. The cell suspension was then quickly mounted on slides with sealed cover-slips. Confocal fluorescence microscopy was performed with a BioRad MRC-1024 confocal microscope system with Krypton-argon laser which outputs 488, 568 and 647 nm excitation line and Nikon upright epifluorescence microscope (Zeiss 60× oil immersion planApp objective with 1.4 numerical aperture).
(§3) The internalization of MUC7 20-mer and 12-mer-3 into fungi was visualized using FITC labeled peptides. Cells (10^7) were treated with 50 μM FITC-MUC7 20-mer or 12-mer-3 for 45-90 mins in 100 μl of Na phosphate buffer (10 mM, pH 7.4) at 37° C. The cells were then processed and visualized as described in Example 1.

C. albicans [2] = experiment: Fungal transmembrane potential, DiSC3(5) dye release; format: cell-based, Candida albicans; details: peptide 18 μM, 1500 second
Protocol: (§4) Peptide-induced permeabilization of C. albicans and C. neoformas cell membranes was monitored by measuring changes in transmembrane potential. Measurements were carried out using the transmembrane potential sensitive dye 3,3′-dipropyl-2,2′-thiadicarbocyanine iodide (DiSC3(5)). Fungi were grown overnight on SAB plates and resuspended in 10 mM Na phosphate buffer pH 7.4 at a concentration of 1×10^5 cells/ml. Dye was diluted in ethanol to achieve a final concentration of 714 nM. […] The use of this dye in fungal cells to monitor changes in permeabilization is reliable and well documented. This cationic dye accumulates on membranes, is translocated into the lipid bilayer and aggregates within the confined membrane interior. Once aggregated inside the cell, the molecules interact with each other, losing energy, and decreasing fluorescence through a process called quenching. If permeabilization occurs, dye is released into the medium and it regains its fluorescent properties, allowing it to be detected. Experiments were carried out using a spectrofluorimeter (Perkin Elmer LS 50 B). A water bath and circulator was connected to the machine.

A. actinomycetemcomitans = experiment: Fluorescence microscopy, internalization of FITC-labeled peptide in bacteria; format: cell-based, Actinobacillus actinomycetemcomitans; details: data not shown
Excerpt: In order to visualize the association of 20-mer with fungi or bacteria and its fungal cellular localization, N-terminal FITC-labeled MUC7 20-mer was used. […] In addition, confocal fluorescence microscopy was used to study the intracellular target of the peptides.

C. albicans [3] = experiment: Antifungal (cidal) activity assay, loss of cell viability; format: cell-based, Candida albicans; details: for Loss of Cell viability (%): Candida albicans, 6.25 μM, pH 7.4
Excerpt: (§5) Azole-sensitive (# 2-76) and azole-resistant (# 12-99) clinical isolates of C. albicans were a gift from Dr. Theodore C. White (University of Washington and Seattle Biomedical Research Institute, Seattle, Wash.). An azole-sensitive Candida glabrata (C. glabrata) was purchased from ATCC (ATCC 90030) and its azole-resistant counterpart, clinical isolate 65C, was obtained from Dr. John E. Bennett (National Institute of Allergy and Infectious Diseases, Bethesda, Md.). A clinical isolate of Candida krusei (C. krusei) was obtained from the Erie County Medical Center, Buffalo, N.Y. Amphotericin B-sensitive (CN2) and -resistant (CN2843) C. neoformans strains were obtained from AIDS patients with cryptococcal meningitis and were generously provided by Dr. John H. Rex (University of Texas Medical School, Houston, Tex.). Additionally, Saccharomyces cerevisiae (S. serevisiae) strain S288C was provided by Dr. D. Kosman, Department of Biochemistry, University at Buffalo, the State University of New York. All fungi were streaked and grown on SAB plates at 37° C., except S. cerevisiae, which was grown at 30° C. until large colonies were formed. One colony was then picked and resuspended in Na phosphate buffer (pH 7.4) and the concentration was adjusted to 1×10^5 cell/ml for the antifungal assay described below.
(§6) Two fold serial dilutions of each peptide (ranging from 100 μM down to 1.5625 μM) in 20 μl of 10 mM Na phosphate buffer, pH 7.4, were incubated with an equal volume of bacterial or fungal strain (10^5 cells/ml) for 1.5 hours at 30° C. for S. cerevisiae and 37° C. for the rest of strains tested. At the end of incubation, the samples were diluted 20 fold and aliquots (˜120 cells) of each sample were plated on appropriate plates depending on the strain tested, as indicated above. Plates were incubated for 1 to 7 days aerobically or anaerobically, depending on the strain tested. Colonies were then counted, and the loss of cell viability was plotted as a function of protein concentration. Fungicidal activities against C. albicans and C. neoformans were also tested at 4° C.
(§7) To test the effect of inhibitors of oxidative phosphorylation in the mitochondrial system on peptide-induced killing, C. albicans and C. neoformans (CN2) were preincubated with either 20 mM sodium azide or 300 μM CCCP for 2 hours at 37° C. The cidal assays were then carried out as described above. In separate control experiments, both inhibitors were evaluated for their toxicity toward C. albicans and C. neoformans (CN2) in the absence of peptides. At these concentrations, neither compound had any cidal effect. In addition, the fungicidal activities of MUC7 20-mer and Hsn-5 (25 μM) in 10 mM Na phosphate buffer (pH 7.4) in the presence of varying concentrations (1-50 mM) of Ca^++ (as CaCl2) or Mg^++ (as MgCl2) were examined.
(§8) A time course study of peptide-induced killing was statistically analyzed by student t-test.
(§9) Two fold serial dilutions of each peptide (ranging from 50 or 25 μM down to 1.5625 μM) in 20 μl of 10 mM Na phosphate buffer, pH 7.4, were incubated with an equal volume of fungal strain (10^5 cells/ml, also in Na phosphate buffer) for 1.5 hours at 37°. At the end of incubation, the samples were diluted 20 fold with the same buffer and aliquots (˜150 cells) of each sample were plated on SAB plates. Plates were incubated for 1 to 2 days for C. albicans and C. neoformans, respectively. Colonies were then counted, and the loss of cell viability was plotted as a function of protein concentration. The statistical analysis was as described in Example 1.

C. neoformans [4] = experiment: Fungal transmembrane potential, DiSC3(5) dye release; format: cell-based, Cryptococcus neoformans; details: peptide 18 μM, 1500 second
Protocol: as §4

C. neoformans [5] = experiment: Antifungal (cidal) activity assay, loss of cell viability; format: cell-based, Cryptococcus neoformans; details: for Loss of Cell viability (%): Cryptococcus neoformans, 6.25 μM, pH 7.4
Excerpt: as §5, §6, §7, §8, §9

C. neoformans [6] = experiment: Fluorescence light and confocal microscopy, internalization of FITC-labeled peptide; format: cell-based, Cryptococcus neoformans
Protocol: as §1, §2, §3

[7] = 4° C., 20 mM sodium azide, 300 μM CCCP

## CC[C@H](C)[C@H](NC(=O)[C@H](Cc1ccccc1)NC(=O)[C@@H]1CCCN1C(=O)[C@H](CCCCN)NC(=O)[C@H](CCC(N)=O)NC(=O)[C@H](Cc1c[nH]cn1)NC(=O)[C@H](C)NC(=O)[C@@H](N)CC(C)C)C(=O)N[C@@H](CCCNC(=N)N)C(=O)N[C@@H](CCCCN)C(=O)N[C@@H](CO)C(=O)N[C@@H](Cc1ccc(O)cc1)C(=O)N[C@@H](CCCCN)C(=O)N[C@@H](CS)C(=O)N[C@@H](CC(C)C)C(=O)N[C@@H](Cc1c[nH]cn1)C(=O)N[C@@H](CCCCN)C(=O)N[C@@H](CCCNC(=N)N)C(=O)N[C@@H](CS)C(=O)N[C@@H](CCCNC(=N)N)C(=O)O [Peptide 20-mer] (H-LAHQKPFIRKSYKCLHKRCR-OH; N-terminus and C-terminus assumed)
C. albicans [1]; 50 μM, 45-90 minutes, 37° C.
  internalization of FITC-labeled peptide: internalization is observed
C. albicans [1]; [7]
  uptake at 4° C. or after pretreatment with sodium azide or CCCP: did not affect uptake
C. albicans [2]
  release of DiSC3(5) dye (loss of membrane potential): rapid release of dye
A. actinomycetemcomitans
  internalization in bacterial cells: seen on the cell membrane and the inside
C. albicans [3]
  killing activity at 4° C.: ~90%
C. albicans [3]; C. albicans, 300 μM CCCP or 20 mM sodium azide, 2 hours
  effect of pretreatment with CCCP or sodium azide on peptide-induced killing: did not protect
C. albicans [3]; C. albicans, 1 mM Ca++ or Mg++, peptide 25 μM
  effect of 1 mM Ca++ or Mg++ on anticandidal activity: limited effect
C. albicans [3]; C. albicans, 10 mM Ca++ or Mg++, peptide 25 μM
  anticandidal activity sustained in the presence of Ca++ or Mg++: 10%
C. albicans [3]; 15 min
  Loss of Cell viability (%): 42 + 5%
C. albicans [3]; 30 min
  Loss of Cell viability (%): 52 + 1%
C. albicans [3]; 45 min
  Loss of Cell viability (%): 64 + 3%
C. albicans [3]; 90 min
  Loss of Cell viability (%): 74 + 6%
C. neoformans [4]
  release of DiSC3(5) dye (loss of membrane potential): rapid release of dye
C. neoformans [5]; 25 μM
  killing retained in the presence of Ca++: 90%
  killing retained in the presence of Mg++: 84%
C. neoformans [5]; C. neoformans, 300 μM CCCP or 20 mM sodium azide, 2 hours
  effect of pretreatment with CCCP or sodium azide on peptide-induced killing: did not protect
C. neoformans [5]; C. neoformans, 4° C.
  activity at 4° C.: hardly affected
C. neoformans [5]; 30 min
  Loss of Cell viability (%): 96 + 2%
C. neoformans [5]; 45 min
  Loss of Cell viability (%): 98 + 1%
C. neoformans [5]; 90 min
  Loss of Cell viability (%): 100 + 0%
C. neoformans [6]; 50 μM, 45-90 minutes, 37° C.
  internalization of FITC-labeled peptide: internalization is observed
C. neoformans [6]; [7]
  uptake at 4° C. or after pretreatment with sodium azide or CCCP: did not affect uptake
